Reference: patent US20230285357A1, “COMPOSITIONS AND METHODS FOR […] CELLS” (The Regents of the University of California, priority 2020, published 2023)

What was measured:
[1] = test system: osteoblasts; assay: Osteogenesis assay in osteogenic induction media, von Kossa staining; type: cell-based, mouse
Description: To assess the functional capacity of SB216763-treated osteoblasts, they were treated with osteogenic induction media in vitro. […] A transplantation experiment was then performed to examine the capacity for bone formation using a well-established bone formation assay in vivo. This assay was adapted and eGFP positive cells were used, which were isolated from SB216763-treated Flk1-eGFP osteoblasts (FIG. 2, Part A).
The cells were then subjected to osteogenic induction media. […] Cells was transplanted into nude mice to test ectopic bone formation.

[2] = test system: SMAD1 and β-catenin; assay: Immunoblotting of SMAD1, phosphorylated SMAD1 and β-catenin in treated osteoblasts; type: cell-based, mouse; settings: different doses
Source text: The expression of transcription factors that are known to be involved in bone formation or vascular development were screened. […] To determine if excess β-catenin affected SMAD1 expression, β-catenin in SB216763-treated osteoblasts was depleted by using siRNA. […] DNA-binding sites of β-catenin by locating the binding motifs in Smad1 gene was explored, and identified four individual sites located at −196 bp, −1454 bp, −2805 bp and −4729 bp upstream of exon1 of Smad1 gene (FIG. 3, Part D). […] Then, transcriptional status of Smad1 was determined by examining the histone modification, including trimethylated histone H3 lysine 4 (H3K4me3) associated with active transcription and H3K27me3 a closed chromatin mark.
Immunoblotting was performed as previously described. Equal amounts of tissue lysates were used for immunoblotting. Blots were incubated with specific antibodies to SMAD1, GSK3α and GSK3β (all from Cell Signaling Technology, 9743, 433T and 93115), β-catenin and cbfa1 (all from R&D system, AF1329 and MAB2006), osterix (Santa Cruz Biotechnology, sc-22536), Flk1 and VE-cadherin (all from BD Bioscience, 55307 and 562242), vWF (Dako, A0082). 3-Actin (Sigma-Aldrich, A2228) was used as a loading control. Immunofluorescence was performed as previously described in detail. […]

[3] = test system: aortic cells of Osx-GfptgMgp−/− mice; assay: Osteoblastic-lineage tracing in Osx-GfptgMgp−/− mice, FACS of aortic cells; type: in vivo, mouse; settings: Osx-GfptgMgp−/− mice treated for 2 weeks
Description: Then, mice were treated with or without SB216763 for 2 weeks. […] Then, the alteration of GFP and CD31 double positive cells (GFP+CD31+) were characterized after SB216763 treatment. […] Same numbers of cells of each group were used to perform a transplantation experiment to examine the capacity of bone formation by using bone formation assay in vivo.
FACS analysis was performed as previously described. The cells were stained with fluorescein isothiocyanate (FITC)-, phycoerythrin (PE)-, or Alexa Fluor 488 (AF-488)-conjugated antibodies against CD31 and VE-cadherin (all from BD biosciences, 550274 and 562243), osterix (Santa Cruz Biotechnology, sc-22536). Nonspecific fluorochrome- and isotype-matched IgGs (BD Pharmingen) served as controls.

[4] = test system: eGFP positive cells from SB216763-treated Flk1-eGFP osteoblasts; assay: Tube formation assay in vitro; type: cell-based, mouse
Description: Then, same cells in a model of hindlimb ischemia in nude mice to evaluate the capacity of eGFP positive cells in vascular repair were tested. After ligation of the proximal and distal femoral artery, eGFP positive cells were transplanted (FIG. 2, Part F). Human aortic endothelial cells (HAECs) and osteoblasts were used as controls.
Tube formation assays in vitro was then tested. […] Cells into hindlimb ischemia mouse model were transplanted.

[5] = test system: Flk1-eGFP osteoblasts (mouse osteoblast line MC3T3); assay: High throughput screen for eGFP expression in Flk1-eGFP osteoblasts; type: cell-based; settings: after 14 days of treatment
Source text: A high throughput screen was generated by modifying the mouse osteoblast line MC3T3. Fetal liver kinase 1 (Flk1) promoter-driven enhanced green fluorescent protein (eGFP) was introduced into these osteoblasts. […] Several libraries of small molecules, including a FDA-approved drug library, a UCLA in-house collection, and a custom set of compounds were screened. These libraries contained more than 22,000 small molecules ranging from natural products to synthesized compounds. […] It was further determined the specificity of endothelial differentiation by closely examining other vascular lineage markers including smooth muscle cells (SMCs), pericytes, and fibroblasts by using real-time PCR. […] Because GSK3 is important in glucose metabolism, the expression of genes related to glucose metabolism was determined in the SB216763-treated osteoblasts, such as casein kinase 2, glucose transporter 4, and insulin receptor substrates 1 and 2.
MC3T3 cells were stably infected with Flk1 promoter-driven eGFP by using Flk1-eGFP lentivirus (GeneCopoeia™). […] The plates were transferred and delivered by a Thermo Scientific™ Spinnaker™ Robot (ThermoFisher Scientific). eGFP expression was determined and imaged using a FlexStation II and Victor 3V (Perkin Elmer) every day for two weeks.

## Cn1cc(C2=C(c3ccc(Cl)cc3Cl)C(=O)NC2=O)c2ccccc21 [SB216763]
[1]; SB216763-treated cells after restoring SMAD1 or depletion of β-catenin
  mineralization, von Kossa staining: clear mineralization
[1]; SB216763-treated cells in osteogenic induction media
  mineralization, von Kossa staining: lack of mineralization
[2]
  expression and phosphorylation of SMAD1: dose-dependent decrease
  β-catenin protein level: robust increase
[3]
  aortic cells co-expressing GFP and CD31, FACS: decreased number of cells that co-expressed GFP and CD31
  aortic cells expressing only CD31, FACS: increased number of cells that only expressed CD31
[4]; SB216763-treated cells with β-catenin depletion
  tube formation: decrease of tube formation
[4]; eGFP positive cells from treated osteoblasts
  tube formation: robust tube formation
[5]
  cell morphology: converted osteoblasts into EC-like morphology
  eGFP expression: strongly activated eGFP expression
